Measurements as given in patent US4753953A, “Pyridonecarboxylic acid derivatives and antibacterial pharmaceutical compositions thereof” (priority 1985, dated 1988).
≈ marks a conversion by molar mass, not a printed value. Read-outs that look alike come from different tables or passages of the source.

Assays:
Experiment in all cases: MIC, in vitro antibacterial activity (standard strains)
[1] = test system: Peptostreptococcus anaerobius KYA 27337; type: cell-based; settings: Peptostreptococcus anaerobius, KYA27337; 10^6 cells/ml; Gram +; read-out: MIC
[2] = test system: K. pneumoniae 1-220S; type: cell-based, Klebsiella pneumoniae; settings: Klebsiella pneumoniae, 1220S; 10^6 cells/ml; Gram -; read-out: MIC
[3] = test system: P. mirabilis IID 994; type: cell-based; settings: Proteus mirabilis, IID994; 10^6 cells/ml; Gram -; read-out: MIC
[4] = test system: Pseudomonas aeruginosa V-1; type: cell-based; settings: Pseudomonas aeruginosa, V1
[5] = test system: F. varium KYA 8501; type: cell-based; settings: Fusobacterium varium, KYA8501; 10^6 cells/ml; Gram -; read-out: MIC
[6] = test system: P. aeruginosa IFO 12689; type: cell-based, Pseudomonas aeruginosa; settings: Pseudomonas aeruginosa, IFO12689
[7] = test system: Streptococcus pyogenes (S-8); type: cell-based; settings: Streptococcus pyogenes; 10^6 cells/ml; Gram +; read-out: MIC
[8] = test system: E. faecalis IID 682; type: cell-based; settings: Enterococcus faecalis, IID682; 10^6 cells/ml; Gram +; read-out: MIC
[9] = test system: Citrobacter freundii IID 976; type: cell-based; settings: Citrobacter freundii, IID976
[10] = test system: Bacillus subtilis PCI 219; type: cell-based; settings: Bacillus subtilis, PCI219; 10^6 cells/ml; Gram +; read-out: MIC
[11] = test system: Escherichia coli NIHJ JC-2; type: cell-based; settings: Escherichia coli, NIHJJC2
[12] = test system: Morganella morganii IID 602; type: cell-based; settings: Morganella morganii, IID602; 10^6 cells/ml; Gram -; read-out: MIC
[13] = test system: E. limosum KYA 8486; type: cell-based; settings: Eubacterium limosum, KYA8486; 10^6 cells/ml; Gram +; read-out: MIC
[14] = test system: Clostridium difficile I-E; type: cell-based; settings: Clostridioides difficile; 10^6 cells/ml; Gram +
[15] = test system: Serratia marcescens IID 618; type: cell-based; settings: Serratia marcescens, IID618; 10^6 cells/ml; Gram -; read-out: MIC
[16] = test system: S. epidermidis IID 866; type: cell-based; settings: Staphylococcus epidermidis, IID866; 10^6 cells/ml; Gram +; read-out: MIC
[17] = test system: Propionibacterium acens 11828; type: cell-based; settings: Propionibacterium, 11828; 10^6 cells/ml; Gram +; read-out: MIC
[18] = 10^6 cells/ml, Gram -, read-out: MIC

Structure (SMILES)	MIC [1]	MIC [2]	MIC [3]	MIC [4, 18]	MIC [5]	MIC [6, 18]	MIC [7]	MIC [8]	MIC [9, 18]	MIC [10]	MIC [11, 18]	MIC [12]	MIC [13]	MIC [14]	MIC [15]	MIC [16]	MIC [17]	further results
C[C@H]1CN(c2c(F)cc3c(=O)c(C(=O)O)cn4c3c2OC[C@@H]4C)C[C@H]1N.Cl (mixture of isomers) [Example 31, (3S)-10-(cis-3-Amino-4-methyl-1-pyrrolidinyl)-9-fluoro-2,3-dihydro-3-methyl-7-oxo-7H-pyrido[1,2,3-de][1,4]benzoxazine-6-carboxylic acid hydrochloride]	0.39 µg/mL	0.1 µg/mL	0.1 µg/mL	0.39 µg/mL	3.13 µg/mL	0.78 µg/mL	0.2 µg/mL	0.2 µg/mL	0.05 µg/mL	0.05 µg/mL	0.025 µg/mL	0.2 µg/mL	3.13 µg/mL	3.13 µg/mL	0.1 µg/mL	0.2 µg/mL	6.25 µg/mL	
C[C@@H]1CN(c2c(F)cc3c(=O)c(C(=O)O)cn(C4CC4)c3c2F)C[C@H]1N (relative stereo) [Example 18, 7-(trans-3-Amino-4-methyl-1-pyrrolidinyl)-1-cyclopropyl-6,8-difluoro-1,4-dihydro-4-oxo-3-quinolinecarboxylic acid]	0.2 µg/mL (≈ 0.55 µM)	0.025 µg/mL (≈ 0.0688 µM)	0.025 µg/mL (≈ 0.0688 µM)	0.1 µg/mL (≈ 0.275 µM)	1.56 µg/mL (≈ 4.29 µM)	0.39 µg/mL (≈ 1.07 µM)	0.05 µg/mL (≈ 0.138 µM)	0.1 µg/mL (≈ 0.275 µM)		0.025 µg/mL (≈ 0.0688 µM)	0.0063 µg/mL (≈ 0.0173 µM)	0.05 µg/mL (≈ 0.138 µM)		1.56 µg/mL	0.05 µg/mL (≈ 0.138 µM)	0.05 µg/mL (≈ 0.138 µM)	1.56 µg/mL (≈ 4.29 µM)	MIC [9]: 0.0125 µg/mL (≈ 0.0344 µM)
C[C@H]1CN(c2c(F)cc3c(=O)c(C(=O)O)cn(C4CC4)c3c2F)C[C@H]1N.Cl (relative stereo) [Example 20, 7-(cis-3-Amino-4-methyl-1-pyrrolidinyl)-1-cyclopropyl-6,8-difluoro-1,4-dihydro-4-oxo-3-quinolinecarboxylic acid hydrochloride]	0.39 µg/mL	0.05 µg/mL	0.05 µg/mL	0.2 µg/mL	1.56 µg/mL	0.39 µg/mL	0.2 µg/mL	0.2 µg/mL	0.025 µg/mL	0.025 µg/mL		0.05 µg/mL		1.56 µg/mL	0.05 µg/mL	0.05 µg/mL	3.13 µg/mL	MIC [11]: 0.0125 µg/mL
C[C@H]1CN(c2c(F)cc3c(=O)c(C(=O)O)cn(C4CC4)c3c2Br)C[C@H]1N (relative stereo) [Example 21, 7-(cis-3-Amino-4-methyl-1-pyrrolidinyl)-8-bromo-1-cyclopropyl-6-fluoro-1,4-dihydro-4-oxo-3-quinolinecarboxylic acid]	0.2 µg/mL (≈ 0.471 µM)	0.05 µg/mL (≈ 0.118 µM)	0.025 µg/mL (≈ 0.0589 µM)	0.39 µg/mL (≈ 0.919 µM)	0.78 µg/mL (≈ 1.84 µM)	0.78 µg/mL (≈ 1.84 µM)	0.1 µg/mL (≈ 0.236 µM)	0.2 µg/mL (≈ 0.471 µM)	0.025 µg/mL (≈ 0.0589 µM)	0.0125 µg/mL (≈ 0.0295 µM)	0.0063 µg/mL (≈ 0.0148 µM)	0.05 µg/mL (≈ 0.118 µM)		0.39 µg/mL	0.025 µg/mL (≈ 0.0589 µM)	0.05 µg/mL (≈ 0.118 µM)	1.56 µg/mL (≈ 3.68 µM)	
CCn1cc(C(=O)O)c(=O)c2cc(F)c(N3C[C@@H](N)[C@@H](C)C3)c(F)c21 (relative stereo) [Example 22, 7-(cis-3-Amino-4-methyl-1-pyrrolidinyl)-1-ethyl-6,8-difluoro-1,4-dihydro-4-oxo-3-quinolinecarboxylic acid]	3.13 µg/mL (≈ 8.91 µM)	0.1 µg/mL (≈ 0.285 µM)	0.1 µg/mL (≈ 0.285 µM)	0.39 µg/mL (≈ 1.11 µM)	6.25 µg/mL (≈ 17.8 µM)	1.56 µg/mL (≈ 4.44 µM)	0.78 µg/mL (≈ 2.22 µM)	0.78 µg/mL (≈ 2.22 µM)	0.05 µg/mL (≈ 0.142 µM)	0.05 µg/mL (≈ 0.142 µM)	0.05 µg/mL (≈ 0.142 µM)	0.2 µg/mL (≈ 0.569 µM)	6.25 µg/mL (≈ 17.8 µM)	6.25 µg/mL	0.1 µg/mL (≈ 0.285 µM)	0.2 µg/mL (≈ 0.569 µM)	25 µg/mL (≈ 71.2 µM)	
CCn1cc(C(=O)O)c(=O)c2cc(F)c(N3C[C@@H](N)[C@@H](C)C3)c(Cl)c21 (relative stereo) [Example 23, 7-(cis-3-Amino-4-methyl-1-pyrrolidinyl)-8-chloro-1-ethyl-6-fluoro-1,4-dihydro-4-oxo-3-quinolinecarboxylic acid]	1.56 µg/mL (≈ 4.24 µM)	0.1 µg/mL (≈ 0.272 µM)	0.05 µg/mL (≈ 0.136 µM)	0.39 µg/mL (≈ 1.06 µM)	6.25 µg/mL (≈ 17 µM)	1.56 µg/mL (≈ 4.24 µM)	0.78 µg/mL (≈ 2.12 µM)	0.78 µg/mL (≈ 2.12 µM)	0.05 µg/mL (≈ 0.136 µM)	0.05 µg/mL (≈ 0.136 µM)	0.025 µg/mL (≈ 0.068 µM)	0.1 µg/mL (≈ 0.272 µM)	6.25 µg/mL (≈ 17 µM)	6.25 µg/mL	0.05 µg/mL (≈ 0.136 µM)	0.2 µg/mL (≈ 0.544 µM)	12.5 µg/mL (≈ 34 µM)	
C[C@H]1CN(c2c(F)cc3c(=O)c(C(=O)O)cn(CCF)c3c2F)C[C@H]1N (relative stereo) [Example 25, 7-(cis-b 3-Amino-4-methyl-1-pyrrolidinyl)-6,8-difluoro-1-(2-fluoroethyl)-1,4-dihydro-4-oxo-3-quinolinecarboxylic acid]	3.13 µg/mL (≈ 8.47 µM)	0.2 µg/mL (≈ 0.542 µM)	0.1 µg/mL (≈ 0.271 µM)		6.25 µg/mL (≈ 16.9 µM)	1.56 µg/mL (≈ 4.22 µM)	0.78 µg/mL (≈ 2.11 µM)	0.78 µg/mL (≈ 2.11 µM)	0.1 µg/mL (≈ 0.271 µM)	0.1 µg/mL (≈ 0.271 µM)	0.05 µg/mL (≈ 0.135 µM)	0.1 µg/mL (≈ 0.271 µM)	6.25 µg/mL (≈ 16.9 µM)	6.25 µg/mL	0.1 µg/mL (≈ 0.271 µM)	0.39 µg/mL (≈ 1.06 µM)	25 µg/mL (≈ 67.7 µM)	MIC [4]: 0.78 µg/mL (≈ 2.11 µM)
C[C@H]1CN(c2c(F)cc3c(=O)c(C(=O)O)cn(CCF)c3c2Cl)C[C@H]1N (relative stereo) [Example 27, 7-(cis-3-Amino-4-methyl-1-pyrrolidinyl)-8-chloro-6-fluoro-1-(2-fluoroethyl)-1,4-dihydro-4-oxo-3-quinolinecarboxylic acid]	1.56 µg/mL (≈ 4.04 µM)	0.2 µg/mL (≈ 0.518 µM)	0.1 µg/mL (≈ 0.259 µM)		6.25 µg/mL (≈ 16.2 µM)		0.78 µg/mL (≈ 2.02 µM)	0.78 µg/mL (≈ 2.02 µM)	0.1 µg/mL (≈ 0.259 µM)	0.1 µg/mL (≈ 0.259 µM)	0.05 µg/mL (≈ 0.13 µM)	0.1 µg/mL (≈ 0.259 µM)	6.25 µg/mL (≈ 16.2 µM)	6.25 µg/mL	0.1 µg/mL (≈ 0.259 µM)	0.2 µg/mL (≈ 0.518 µM)	12.5 µg/mL (≈ 32.4 µM)	MIC [4]: 0.39 µg/mL (≈ 1.01 µM); MIC [6]: 3.13 µg/mL (≈ 8.11 µM)
CC1COc2c(N3C[C@@H](N)[C@@H](C)C3)c(F)cc3c(=O)c(C(=O)O)cn1c23.Cl (relative stereo) [Example 29, 10-(cis-3-Amino-4-methyl-1-pyrrolidinyl)-9-fluoro-2,3-dihydro-3-methyl-7-oxo-7H-pyrido[1,2,3-de][1,4]benzoxazine-6-carboxylic acid hydrochloride]	1.56 µg/mL	0.2 µg/mL	0.1 µg/mL	0.39 µg/mL	6.25 µg/mL	1.56 µg/mL	0.39 µg/mL	0.39 µg/mL	0.1 µg/mL	0.05 µg/mL	0.025 µg/mL	0.2 µg/mL	6.25 µg/mL	6.25 µg/mL	0.1 µg/mL	0.2 µg/mL	12.5 µg/mL	
CC1CN(c2c(F)cc3c(=O)c(C(=O)O)cn(C4CC4)c3c2Cl)CC1CN (centres unmarked) [Example 1, 7-(3-Aminomethyl-4-methyl-1-pyrrolidinyl)-8-chloro-1-cyclopropyl-6-fluoro-1,4-dihydro-4-oxo-3-quinolinecarboxylic acid]	≤ 0.05 µg/mL	0.05 µg/mL (≈ 0.127 µM)	0.05 µg/mL (≈ 0.127 µM)	0.1 µg/mL (≈ 0.254 µM)	0.39 µg/mL (≈ 0.99 µM)	0.78 µg/mL (≈ 1.98 µM)	0.0125 µg/mL (≈ 0.0317 µM)	0.05 µg/mL (≈ 0.127 µM)	0.05 µg/mL (≈ 0.127 µM)	0.0125 µg/mL (≈ 0.0317 µM)	0.025 µg/mL (≈ 0.0635 µM)	0.1 µg/mL (≈ 0.254 µM)	0.39 µg/mL (≈ 0.99 µM)		0.1 µg/mL (≈ 0.254 µM)	0.0125 µg/mL (≈ 0.0317 µM)	0.2 µg/mL (≈ 0.508 µM)	
CC1CN(c2c(F)cc3c(=O)c(C(=O)O)cn(C4CC4)c3c2Cl)CC1N (centres unmarked) [Example 7, 7-(3-Amino-4-methyl-1-pyrrolidinyl)-8-chloro-1-cyclopropyl-6-fluoro-1,4-dihydro-4-oxo-3-quinolinecarboxylic acid]	0.2 µg/mL (≈ 0.527 µM)	0.05 µg/mL (≈ 0.132 µM)	0.025 µg/mL (≈ 0.0658 µM)	0.2 µg/mL (≈ 0.527 µM)	0.78 µg/mL (≈ 2.05 µM)	0.39 µg/mL (≈ 1.03 µM)	0.1 µg/mL (≈ 0.263 µM)	0.1 µg/mL (≈ 0.263 µM)	0.025 µg/mL (≈ 0.0658 µM)	0.0125 µg/mL (≈ 0.0329 µM)	0.0063 µg/mL (≈ 0.0166 µM)	0.05 µg/mL (≈ 0.132 µM)	0.2 µg/mL (≈ 0.527 µM)		0.05 µg/mL (≈ 0.132 µM)	0.05 µg/mL (≈ 0.132 µM)	0.78 µg/mL (≈ 2.05 µM)	
